According to paper PMC11124822, “Discovery and Anticancer Screening of Novel Oxindole-Based Derivative Bearing Pyridyl Group as Potent and Selective Dual FLT3/CDK2 Kinase Inhibitor” (Pharmaceuticals, 2024):

Assays:
Assay in all cases: NCI-60 antiproliferative screen (SRB)
HL-60(TB) = assay type: cell-based, human; settings: Homo sapiens; 10 µM single dose, 48 h; HL-60(TB) (Leukemia); read-out: Growth inhibition (%)
K-562 = assay type: cell-based, human; settings: Homo sapiens, K562; 10 µM single dose, 48 h; K-562 (Leukemia); read-out: Growth inhibition (%)
EKVX = assay type: cell-based, human; settings: Homo sapiens; 10 µM single dose, 48 h; EKVX (NSCLC); read-out: Growth inhibition (%)
NCI-H322M = assay type: cell-based, human; settings: Homo sapiens; 10 µM single dose, 48 h; NCI-H322M (NSCLC); read-out: Growth inhibition (%)
NCI-H460 = assay type: cell-based, human; settings: Homo sapiens; 10 µM single dose, 48 h; NCI-H460 (NSCLC); read-out: Growth inhibition (%)
NCI-H522 = assay type: cell-based, human; settings: Homo sapiens; 10 µM single dose, 48 h; NCI-H522 (NSCLC); read-out: Growth inhibition (%)
HCT-116 = assay type: cell-based, human; settings: Homo sapiens; 10 µM single dose, 48 h; HCT-116 (Colon); read-out: Growth inhibition (%)
HT29 = assay type: cell-based, human; settings: Homo sapiens, HT-29; 10 µM single dose, 48 h; HT29 (Colon); read-out: Growth inhibition (%)
SF-295 = assay type: cell-based, human; settings: Homo sapiens; 10 µM single dose, 48 h; SF-295 (CNS); read-out: Growth inhibition (%)
SNB-19 = assay type: cell-based, human; settings: Homo sapiens; 10 µM single dose, 48 h; SNB-19 (CNS); read-out: Growth inhibition (%)
U251 = assay type: cell-based, human; settings: Homo sapiens, U-251; 10 µM single dose, 48 h; U251 (CNS); read-out: Growth inhibition (%)
LOX IMVI = assay type: cell-based, human; settings: Homo sapiens; 10 µM single dose, 48 h; LOX IMVI (Melanoma); read-out: Growth inhibition (%)
MALME-3M = assay type: cell-based, human; settings: Homo sapiens; 10 µM single dose, 48 h; MALME-3M (Melanoma); read-out: Growth inhibition (%)
M14 = assay type: cell-based, human; settings: Homo sapiens; 10 µM single dose, 48 h; M14 (Melanoma); read-out: Growth inhibition (%)
MDA-MB-435 = assay type: cell-based, human; settings: Homo sapiens; 10 µM single dose, 48 h; MDA-MB-435 (Melanoma); read-out: Growth inhibition (%)
UACC-257 = assay type: cell-based, human; settings: Homo sapiens; 10 µM single dose, 48 h; UACC-257 (Melanoma); read-out: Growth inhibition (%)
UACC-62 = assay type: cell-based, human; settings: Homo sapiens; 10 µM single dose, 48 h; UACC-62 (Melanoma); read-out: Growth inhibition (%)
IGROV1 = assay type: cell-based, human; settings: Homo sapiens, IGROV-1; 10 µM single dose, 48 h; IGROV1 (Ovarian); read-out: Growth inhibition (%)
NCI/ADR-RES = assay type: cell-based, human; settings: Homo sapiens; 10 µM single dose, 48 h; NCI/ADR-RES (Ovarian); read-out: Growth inhibition (%)
786-0 = assay type: cell-based, human; settings: Homo sapiens; 10 µM single dose, 48 h; 786-0 (Renal); read-out: Growth inhibition (%)
RXF 393 = assay type: cell-based, human; settings: Homo sapiens; 10 µM single dose, 48 h; RXF 393 (Renal); read-out: Growth inhibition (%)
UO-31 = assay type: cell-based, human; settings: Homo sapiens; 10 µM single dose, 48 h; UO-31 (Renal); read-out: Growth inhibition (%)
PC-3 = assay type: cell-based, human; settings: Homo sapiens; 10 µM single dose, 48 h; PC-3 (Prostate); read-out: Growth inhibition (%)
DU-145 = assay type: cell-based, human; settings: Homo sapiens; 10 µM single dose, 48 h; DU-145 (Prostate); read-out: Growth inhibition (%)
HS 578T = assay type: cell-based, human; settings: Homo sapiens; 10 µM single dose, 48 h; HS 578T (Breast); read-out: Growth inhibition (%)
BT-549 = assay type: cell-based, human; settings: Homo sapiens; 10 µM single dose, 48 h; BT-549 (Breast); read-out: Growth inhibition (%)
MDA-MB-468 = assay type: cell-based, human; settings: Homo sapiens; 10 µM single dose, 48 h; MDA-MB-468 (Breast); read-out: Growth inhibition (%)
SR = settings: Homo sapiens, 48 h, read-out: Growth inhibition (%)
OVCAR-4 = settings: Homo sapiens, OVCAR-4, 48 h, read-out: Growth inhibition (%)
OVCAR-3 = assay type: cell-based, human; settings: Homo sapiens; 10 µM single dose, 48 h; OVCAR-3 (Ovarian); read-out: Growth inhibition (%)

| Compound | inhibition at 10 µM (HL-60(TB)) [%] | inhibition at 10 µM (K-562) [%] | inhibition at 10 µM (EKVX) [%] | inhibition at 10 µM (NCI-H322M) [%] | inhibition at 10 µM (NCI-H460) [%] | inhibition at 10 µM (NCI-H522) [%] | inhibition at 10 µM (HCT-116) [%] | inhibition at 10 µM (HT29) [%] | inhibition at 10 µM (SF-295) [%] | inhibition at 10 µM (SNB-19) [%] | inhibition at 10 µM (U251) [%] | inhibition at 10 µM (LOX IMVI) [%] | inhibition at 10 µM (MALME-3M) [%] | inhibition at 10 µM (M14) [%] | inhibition at 10 µM (MDA-MB-435) [%] | inhibition at 10 µM (UACC-257) [%] | inhibition at 10 µM (UACC-62) [%] | inhibition at 10 µM (IGROV1) [%] | inhibition at 10 µM (NCI/ADR-RES) [%] | inhibition at 10 µM (786-0) [%] | further results |
| --- | --- | --- | --- | --- | --- | --- | --- | --- | --- | --- | --- | --- | --- | --- | --- | --- | --- | --- | --- | --- | --- |
| O=C1Nc2ccccc2C1=Cc1ccc(OCc2ccccc2)cc1 (mixture of isomers) [Compound 5a, (E/Z)-3-[4-(Benzyloxy)benzylidene] indolin-2-one] | 11.5 | 11.8 | 0.69 | 0.44 | -8.64 | 2.18 | 4.24 | -6.64 | -6.78 | 2.17 | -3.49 | -7.76 | -7.59 | 5.67 | -2.33 | -9.45 | 6.11 | -9.53 | -0.55 | 3.67 | inhibition at 10 µM (RXF 393): -16.2%; inhibition at 10 µM (UO-31): 14.9%; inhibition at 10 µM (PC-3): 5.85%; inhibition at 10 µM (DU-145): -4.38%; inhibition at 10 µM (HS 578T): -6.13%; inhibition at 10 µM (BT-549): -5.74%; inhibition at 10 µM (MDA-MB-468): 0.75%; inhibition at 10 µM (SR): 14.6%; inhibition at 10 µM (OVCAR-4): -7.99% |
| O=C1Nc2ccc(F)cc2C1=Cc1ccc(OCc2ccccc2)cc1 (mixture of isomers) [Compound 5b, (E/Z)-3-[4-(Benzyloxy)benzylidene]-5-fluoroindolin-2-one] | 7.92 | 7.19 | 0.65 | 2.81 | -0.94 | 5.91 | 4.15 | 2.38 | 1.11 | 1.26 | 0.4 | -6.24 | 7.33 | 3.39 | 5.59 | 2.53 | 4.38 | 2.92 | 0.01 | 0.43 | inhibition at 10 µM (RXF 393): 0.31%; inhibition at 10 µM (UO-31): 2.55%; inhibition at 10 µM (PC-3): -2.77%; inhibition at 10 µM (DU-145): 0.4%; inhibition at 10 µM (HS 578T): -0.32%; inhibition at 10 µM (BT-549): -6.03%; inhibition at 10 µM (MDA-MB-468): 1.56%; inhibition at 10 µM (SR): -0.14%; inhibition at 10 µM (OVCAR-4): 0.82% |
| O=C1Nc2ccc(F)cc2C1=Cc1ccc(OCc2ccncc2)cc1 (mixture of isomers) [Compound 5n, (E/Z)-5-Fluoro-3-[4-(pyridin-4-ylmethoxy)benzylidene] indolin-2-one] | 57.8 | 79.3 | 52.2 | 27.6 | 44.4 | 82 | 56.1 | 36.4 | 51.7 | 60.5 | 61.3 | 67.3 | 26.8 | 32.5 | 61.7 | 23.4 | 28.4 | 64.7 | 74.2 | 19.4 | inhibition at 10 µM (OVCAR-3): 39.2%; inhibition at 10 µM (RXF 393): 47.6%; inhibition at 10 µM (UO-31): 54.8%; inhibition at 10 µM (PC-3): 47.4%; inhibition at 10 µM (DU-145): 38.4%; inhibition at 10 µM (HS 578T): 28.9%; inhibition at 10 µM (MDA-MB-468): 61.8%; inhibition at 10 µM (SR): 85.4%; inhibition at 10 µM (OVCAR-4): 43.4% |
| O=C1Nc2ccc(Cl)cc2C1=Cc1ccc(OCc2ccncc2)cc1 (mixture of isomers) [Compound 5o, (E/Z)-5-Chloro-3-[4-(pyridin-4-ylmethoxy)benzylidene] indolin-2-one] | 66.5 | 72.5 | 37.6 | 40.6 | 57.8 | 86 | 60.5 | 39.7 | 44.2 | 73.8 | 66.9 | 58.7 | 43 | 33 | 58.7 | 23.7 | 37.6 | 84.7 | 67.6 | 32.4 | inhibition at 10 µM (OVCAR-3): 67.4%; inhibition at 10 µM (RXF 393): 73.8%; inhibition at 10 µM (UO-31): 51.1%; inhibition at 10 µM (PC-3): 52.4%; inhibition at 10 µM (DU-145): 49.3%; inhibition at 10 µM (HS 578T): 27%; inhibition at 10 µM (MDA-MB-468): 44.9%; inhibition at 10 µM (SR): 88.9%; inhibition at 10 µM (OVCAR-4): 47.3% |
| O=C1Nc2cc(Cl)ccc2C1=Cc1ccc(OCc2ccncc2)cc1 (mixture of isomers) [Compound 5p, (E/Z)-6-Chloro-3-[4-(pyridin-4-ylmethoxy)benzylidene]indolin-2-one] | 52.4 | 59.1 | 45.1 | 22.5 | 36.8 | 45.2 | 61.5 | 37.8 | 32.2 | 28.7 | 64.4 | 65.2 | 12.5 | 16.9 | 29.2 | 17.2 | 34.7 | 67.9 | 59.3 | 23.9 | inhibition at 10 µM (OVCAR-3): 53%; inhibition at 10 µM (RXF 393): 67.4%; inhibition at 10 µM (UO-31): 49%; inhibition at 10 µM (PC-3): 45%; inhibition at 10 µM (DU-145): 29.4%; inhibition at 10 µM (HS 578T): 35%; inhibition at 10 µM (MDA-MB-468): 65.6%; inhibition at 10 µM (SR): 72.6%; inhibition at 10 µM (OVCAR-4): 31.8% |
